Measured values taken from US4123530A, “N-cyclohexyl-piperazino acetamides and propionamides” (Camillo Corvi S.p.A., priority 1976, dated 1978).

What was measured:
intestine peristaltis = test: spasmolytic activity in vivo: activity on intestine peristaltis (mouse)
Excerpt: Activity of C/63 on intestine peristaltis (mouse)

Wistar rats = test: Sub-chronic toxicity (30 days per ora); type: in vivo; conditions: oral 400 mg/kg
Method: (2) Sub-chronic toxicity (C/63)
Eighty Wistar rats were divided in 4 groups of twenty each (10 males and 10 fewales). Compound (C/63) was given per ora to three groups of animals for a period of 30 days in quantities of 100, 200 and 400 mg/kg.

[1] = system: Ulcer due to activity prevention; test: Anti-ulcer activity: Ulcer due to activity prevention (Rossi & Coll.); type: in vivo
[2] = system: Phenylbutazone-histamine ulcer; test: Anti-ulcer activity: Phenylbutazone-histamine ulcer; type: in vivo
Withdrawal ulcer = test: Anti-ulcer activity: Withdrawal ulcer; type: in vivo; conditions: 100 mg/kg os
Reserpine ulcer = test: Anti-ulcer activity: Reserpine ulcer with rats; type: in vivo
Guinea-pig Ileus = test: spasmolytic activity in vitro, Guinea-pig Ileus
Shay ulcer = test: Anti-ulcer activity: Shay ulcer; type: in vivo; conditions: 300 mg/kg os
acute toxicity, mice = conditions: mouse, in vivo, read-out: DL/50 (the source's name)
acute toxicity, rats = conditions: rat, in vivo, po, os, read-out: DL/50 (the source's name)

Q: For `O=C(CN1CCNCC1)NC1CCCCC1` [C/63, N-[1-piperazinylacetyl]-cyclohexylamine], which Inhibition % (intestine peristaltis; 100 mg/kg os) is on record?
A: The Inhibition % was 6%.

Q: And the Inhibition % (intestine peristaltis; 200 mg/kg os)?
A: Its Inhibition % is 23%.

Q: What about the “appearance of damages due to toxicity (bloodcrasis, biochemical blood analysis, weight, histological examination of the organs)” value (Wistar rats) of the same compound?
A: The value was “no appearance of damages due to the toxicity of the drug”.

Q: And the Inhibition % ([1]; 50 mg/kg os)?
A: The Inhibition % was 19%.

Q: What about the Inhibition % ([1]; 100 mg/kg os) of the same compound?
A: Its Inhibition % is 32%.

Q: And the Inhibition % ([1]; 200 mg/kg os)?
A: The Inhibition % was 45%.

Q: And the Inhibition % ([2]; 25 mg/kg os)?
A: The Inhibition % was 10%.

Q: What about the Inhibition % ([2]; 50 mg/kg os) of the same compound?
A: The Inhibition % was 43%.

Q: And the Inhibition % ([2]; 100 mg/kg os)?
A: The Inhibition % was 72%.

Q: And the Inhibition % (Withdrawal ulcer)?
A: Its Inhibition % is 33%.

Q: And the Inhibition % (Reserpine ulcer; 300 mg/kg os)?
A: The Inhibition % was 25%.

Q: What about the “DE50 against Ach.” value (Guinea-pig Ileus; against Ach.) of the same compound?
A: Its value is over 40 µg/mL.

Q: What about the “DE50 against BaCl2” value (Guinea-pig Ileus; against BaCl2) of the same compound?
A: The value was over 40 µg/mL.

Q: And the DE50 against histamine (Guinea-pig Ileus; against histamine)?
A: The DE50 against histamine was over 40 µg/mL.

Q: What about the Inhibition % (Shay ulcer) of the same compound?
A: Its Inhibition % is 72%.

Q: What about the LD50 (acute toxicity, mice; iv) of the same compound?
A: Its LD50 is 271 mg/kg.

Q: What about the LD50 (acute toxicity, mice; po, os) of the same compound?
A: Its LD50 is 1970 mg/kg.

Q: What about the LD50 (acute toxicity, rats) of the same compound?
A: The LD50 was 3900 mg/kg.

Q: Which results are given for `CC1CCC(NC(=O)CN2CCNCC2)CC1` (stereo not drawn) [C/82, N-(1-piperazinylacetyl)-4-methyl-cyclohexylamine]?
A: anticholinergic activity (anticholinergic activity): no anticholinergic activity; Inhibition % ([1]; 100 mg/kg os): 30%; Inhibition % ([1]; 200 mg/kg os): 35%; Inhibition % ([2]; 50 mg/kg os): 33%; Inhibition % ([2]; 100 mg/kg os): 60%; Inhibition % (Withdrawal ulcer): 30%; Inhibition % (Reserpine ulcer; 100 mg/kg os): 47%; Inhibition % (Reserpine ulcer; 300 mg/kg os): 70%; LD50 (acute toxicity, mice; po, os): 1790 mg/kg
